Earlier results, collected in patent US20070166321A1, “Compositions and Methods for Reducing Cholesterol and Inflammation” (priority 2006, published 2007).
“Also recorded” adds a separate entry of the source.

Experiments:
[1] = tested on: 12-O-tetradecanoylphorbol-13 acetate (TPA) induced inflammation; settings: for 50%-inflammation reduction index ID50: TPA-induced inflammation
[2] = not given; remark: listed apart in the source
[3] = in vivo

Row | SMILES | 50%-inflammation reduction index ID50 [1] | effect on glucose levels of non-diabetics | solubility in water [2] | inhibition of TPA induced inflammation, potency comparison ([1]; compared with reference antiinflammatory drugs) | increase of cardiovascular disease [3]
1 | COc1ccc2c(c1)c(CC(=O)O)c(C)n2C(=O)c1ccc(Cl)cc1 [indomethacin] | 0.3 mg |  |  |  | 
2 | C[C@H]1[C@H](C)CC[C@]2(C(=O)O)CC[C@]3(C)C(=CC[C@@H]4[C@@]5(C)C[C@@H](O)[C@H](O)C(C)(C)[C@@H]5CC[C@]43C)[C@H]12 [corosolic acid] | 0.03 mg | does not significantly reduce glucose levels | low solubility in water | potency similar to the antiinflammatory drug indomethasin; also recorded: potency similar to the antiinflammatory drugs indomethasin and hydrocortisone | 
3 | C[C@]12CCC(=O)C=C1CC[C@@H]1[C@@H]2[C@@H](O)C[C@@]2(C)[C@H]1CC[C@]2(O)C(=O)CO [hydrocortisone] | 0.03 mg |  |  |  | 
4 | CS(=O)(=O)c1ccc(C2=C(c3ccccc3)C(=O)OC2)cc1 [Vioxx] |  |  |  |  | ~4 fold
